Data on twelve compounds can be found in US11339154B2, “Heterocycle-substituted bicyclic azole pesticides” (FMC Corporation, priority 2016, dated 2022).

Holding throughout (format): in vivo
For assay [1], the system named is cotton melon aphid (Aphis gossypii (Glover)). The assay can be described thus: whole plant or invertebrate. Particulars: 144 h, 6 days; for mortality at 50 ppm: 50 ppm spray; for mortality at 250 ppm: 250 ppm spray. The procedure:
(§1) Formulation and Spray Methodology for Tests A-F
(§2) Test compounds were formulated using a solution containing 10% acetone, 90% water and 300 ppm X-77® Spreader Lo-Foam Formula non-ionic surfactant containing alkylarylpolyoxyethylene, free fatty acids, glycols and isopropanol (Loveland Industries, Inc. Greeley, Colo., USA). The formulated compounds were applied in 1 mL of liquid through a SUJ2 atomizer nozzle with 1/8 JJ custom body (Spraying Systems Co. Wheaton, Ill., USA) positioned 1.27 cm (0.5 inches) above the top of each test unit. Test compounds were sprayed at the rates indicated, and each test was replicated three times.
For evaluating control of cotton melon aphid (Aphis gossypii (Glover)) through contact and/or systemic means, the test unit consisted of a small open container with a 6-7-day-old cotton plant inside. This was pre-infested with 30-40 insects on a piece of leaf according to the cut-leaf method, and the soil of the test unit was covered with a layer of sand.
Test compounds were formulated and sprayed at 250 and/or 50 ppm. After spraying, the test units were maintained in a growth chamber for 6 days at 19° C. and 70% relative humidity. Each test unit was then visually assessed for insect mortality.

For assay [2], the system named is green peach aphid (Myzus persicae (Sulzer)). The assay can be described thus: whole plant or invertebrate. Particulars: in Raphanus sativus, 144 h, 6 days; for mortality at 50 ppm: 50 ppm spray; for mortality at 250 ppm: 250 ppm spray. The procedure: as §1, §2
For evaluating control of green peach aphid (Myzus persicae (Sulzer)) through contact and/or systemic means, the test unit consisted of a small open container with a 12-15-day-old radish plant inside. This was pre-infested by placing on a leaf of the test plant 30-40 aphids on a piece of leaf excised from a culture plant (cut-leaf method). The aphids moved onto the test plant as the leaf piece desiccated. After pre-infestation, the soil of the test unit was covered with a layer of sand.
Test compounds were formulated and sprayed at 250 and/or 50 ppm. After spraying of the formulated test compound, each test unit was allowed to dry for 1 hour and then a black, screened cap was placed on top. The test units were held for 6 days in a growth chamber at 19-21° C. and 50-70% relative humidity. Each test unit was then visually assessed for insect mortality.

Assay [3] has as its system sweetpotato whitefly (Bemisia tabaci (Gennadius)). The assay can be described thus: whole plant or invertebrate. The settings on record: in Gossypium hirsutum, 312 h, 13 days; for mortality at 250 ppm: 250 ppm spray; for mortality at 50 ppm: 50 ppm spray. The procedure:
as §1, §2
For evaluating control of the sweetpotato whitefly (Bemisia tabaci (Gennadius)) through contact and/or systemic means, the test unit consisted of a small open container with a 12-14-day-old cotton plant inside. Prior to the spray application, both cotyledons were removed from the plant, leaving one true leaf for the assay. Adult whiteflies were allowed to lay eggs on the plant and then were removed from the test unit. Cotton plants infested with at least 15 eggs were submitted to the test for spraying.
Test compounds were formulated and sprayed at 250 and/or 50 ppm. After spraying, the test units were allowed to dry for 1 hour. The cylinders were then removed, and the units were taken to a growth chamber and held for 13 days at 28° C. and 50-70% relative humidity. Each test unit was then visually assessed for insect mortality.

The test system of assay [4] is Western Flower Thrips (Frankliniellla occidentalis (Pergande)). The assay is described as follows: Test F: control of Western Flower Thrips on Soleil bean plant, contact and/or systemic, spray. Particulars: 50 ppm spray; 6 days; very good to excellent control; criterion is plant damage and/or 100% mortality. The procedure: as §1, §2
For evaluating control of the Western Flower Thrips (Frankliniellla occidentalis (Pergande)) through contact and/or systemic means, the test unit consisted of a small open container with a 5-7-day-old Soleil bean plant inside.
Test compounds were formulated and sprayed at 250 and/or 50 ppm. After spraying, the test units were allowed to dry for 1 hour, and then 22-27 adult thrips were added to each unit. A black, screened cap was placed on top, and the test units were held for 6 days at 25° C. and 45-55% relative humidity.

A value given as a limit tells only on which side of the number the result lay.

With `CC(C)(C#N)NC(=O)c1coc(-c2ccc3nn(-c4cccnc4)cc3c2)n1` [Compound 155, N-(1-cyano-1-methylethyl)-2-[2-(3-pyridinyl)-2H-indazol-5-yl]-4-oxazolecarboxamide], the mortality at 50 ppm in assay [1] and in assay [2] was at least 80% in each case.

In turn, `COC(=O)C(C)(C)NC(=O)c1nnc(-c2ccc3nn(-c4cccnc4)cc3c2)s1` [Compound 128, 2-methyl-N-[[5-[2-(3-pyridinyl)-2H-indazol-5-yl]-1,3,4-thiadiazol-2-yl]carbonyl]alanine methyl ester] returned a mortality at 50 ppm in assay [1] of at least 80%.

With `O=C(NC1CCOCC1)c1csc(-c2ccc3nn(-c4cccnc4)cc3c2)n1` [Compound 64, 2-[2-(3-pyridinyl)-2H-indazol-5-yl]-N-(tetrahydro-2H-pyran-4-yl)-4-thiazolecarboxamide], the mortality at 50 ppm in assay [1] and in assay [2] was at least 80% each time. For the same compound, the values for the mortality at 250 ppm in assay [1], in assay [3] and in assay [2] were at least 80%, at least 50% and at least 80%, respectively.

In assay [1], `O=C(NCCO)c1cccc(-c2ccc3nn(-c4cccnc4)cc3c2)c1` [Compound 31, N-(2-hydroxyethyl)-3-[2-(3-pyridinyl)-2H-indazol-5-yl]benzamide] returned a mortality at 50 ppm of at least 80% and a mortality at 250 ppm of at least 80%. In assay [2], this compound registered a mortality at 50 ppm of at least 80% and a mortality at 250 ppm of at least 80%.

Consider `CN(C)C(=O)C1(NC(=O)c2cc(-c3ccc4nn(-c5cccnc5)cc4c3)ccn2)CC1` [Compound 87, N-[1-[(dimethylamino)carbonyl]cyclopropyl]-4-[2-(3-pyridinyl)-2H-indazol-5-yl]-2-pyridinecarboxamide], for which the mortality at 50 ppm in assay [1] and in assay [2] was at least 80% in each case.

In the case of `CNC(=O)C1(NC(=O)c2cc(-c3ccc4nn(-c5cccnc5)cc4c3)ccn2)CC1` [Compound 85, N-[1-[(methylamino)carbonyl]cyclopropyl]-4-[2-(3-pyridinyl)-2H-indazol-5-yl]-2-pyridinecarboxamide], the mortality at 50 ppm in assay [1] and in assay [2] was at least 80% throughout.

In turn, `COC(=O)C(C)(C)NC(=O)c1nnc(-c2ccc3nn(-c4cccnc4)cc3c2)o1` [Compound 105, 2-methyl-N-[[5-[2-(3-pyridinyl)-2H-indazol-5-yl]-1,3,4-oxadiazol-2-yl]carbonyl]alanine methyl ester] gave a mortality at 50 ppm in assay [1] of at least 80%.

`O=C(NCc1ncccn1)c1ncsc1-c1ccc2nn(-c3cccnc3)cc2c1` [Compound 78, 5-[2-(3-pyridinyl)-2H-indazol-5-yl]-N-(2-pyrimidinylmethyl)-4-thiazolecarboxamide] came in with a mortality at 50 ppm in assay [1] of at least 80%. Also, in assay [2], the mortality at 50 ppm is at least 80% and the mortality at 250 ppm was at least 80%.

On to `NC(=O)C1(NC(=O)c2cc(-c3ccc4nn(-c5cccnc5)cc4c3)ccn2)CC1` [Compound 86, N-[1-(aminocarbonyl)cyclopropyl]-4-[2-(3-pyridinyl)-2H-indazol-5-yl]-2-pyridinecarboxamide], for which the mortality at 50 ppm in assay [1] and in assay [2] was at least 80% throughout.

For the compound `CNC(=O)COc1cccc(-c2ccc3nn(-c4cccnc4)cc3c2)c1` [Compound 102, N-methyl-2-[3-[2-(3-pyridinyl)-2H-indazol-5-yl]phenoxy]acetamide], the mortality at 50 ppm is at least 80% in assay [1], at least 50% in assay [3] and at least 80% in assay [2]. In assay [3], the mortality at 250 ppm is at least 50%.

For the compound `COC(CNC(=O)c1cccc(-c2ccc3nn(-c4cccnc4)cc3c2)c1)OC` [Compound 25, N-(2,2-dimethoxyethyl)-3-[2-(3-pyridinyl)-2H-indazol-5-yl]benzamide], the values for the mortality at 50 ppm in assay [1], in assay [3] and in assay [2] were at least 80%, at least 50% and at least 80%, respectively. Besides, the results for the mortality at 250 ppm in assay [1], in assay [3] and in assay [2] were at least 80%, at least 50% and at least 80%, respectively.

Regarding `COC(CNC(=O)c1ccc(-c2ccc3nn(-c4cccnc4)cc3c2)c(Cl)c1)OC` [Compound 18], the “control efficacy: plant damage (30% or less plant damage and/or 100% mortality)” value in assay [4] is listed as at most 30%.
